The record followed here is patent US12290513B2, “Therapeutic methods and compositions for treating movement disorders” (Vima Therapeutics, Inc., priority 2023, dated 2025).

Broadly, the half-life is the time needed for the level to fall by half in the phase considered. Low readings indicate rapid decline, high ones slow decline.

The subject of data set [1] is guinea pig ileum myenteric plexus-longitudinal muscle (MPLM) strips. Description: EFS-induced contractions in guinea pig ileum MPLM strips.
The test system of data set [2] is tear production. Description: THP-induced dry eye in dogs: tear production. As to conditions: oral, 2 mpk alone. Type of data set: in vivo, Beagles.
A short description of data set [3]: Whole blood stability, human. How it is done:
(§1) Procedures for blood Stability. • A. 398 μL of blood from each species was added to an incubation plate, which was pre-warmed at 37C for 15 minutes. • B. After the pre-incubation, 2 μL of working solution (test compounds or control compounds) was spiked to 398 μL of blood to reach a final concentration of 1 μM for test compounds and 5 μM for control compounds. The final concentration of organic solvents is 0.5%. The assays were performed in duplicate. • C. The reaction samples were incubated at 37C. • D. Aliquots of 50 μL were taken from the reaction samples at 0, 15, 30, 60 and 120 minutes. The reaction was stopped by the addition of 50 μL ultrapure water and 400 μL cold acetonitrile. • E. All samples were vortexed for 10 minutes, followed by centrifugation at 3,220 g for 40 minutes to precipitate proteins. 100 μL of the supernatant was then transferred to a new plate. The supernatant was diluted with ultrapure water as needed for detection by LC-MS/MS. Sample Analysis
(§2) Samples were analyzed by LC-MS/MS to measure the concentration of the test compounds.
(§3) All calculations were carried out using Microsoft Excel and according to standard analysis methods that are known in the art.

Data set [4] in a line: Whole blood stability, dog. How it is done: as §1, §2, §3
The target of data set [5] is CYP2C19 (Homo sapiens, UniProt P33261). Briefly: Incubation with recombinant CYP2C19.
CYP2C19, sequence (P33261 whole entry): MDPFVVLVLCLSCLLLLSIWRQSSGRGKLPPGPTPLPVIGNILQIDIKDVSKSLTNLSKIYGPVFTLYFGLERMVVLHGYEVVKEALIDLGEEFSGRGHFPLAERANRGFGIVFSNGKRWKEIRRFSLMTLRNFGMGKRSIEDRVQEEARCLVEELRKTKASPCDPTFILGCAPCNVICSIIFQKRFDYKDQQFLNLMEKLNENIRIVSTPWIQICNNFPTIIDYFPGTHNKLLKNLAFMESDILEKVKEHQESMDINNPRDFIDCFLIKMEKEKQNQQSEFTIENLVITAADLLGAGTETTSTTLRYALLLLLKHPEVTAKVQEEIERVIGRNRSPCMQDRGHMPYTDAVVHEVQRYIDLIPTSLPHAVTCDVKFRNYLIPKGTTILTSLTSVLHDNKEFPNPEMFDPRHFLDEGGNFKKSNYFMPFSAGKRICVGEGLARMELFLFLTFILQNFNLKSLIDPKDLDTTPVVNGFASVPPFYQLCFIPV
Data set [6] has as its system haloperidol-induced catalepsy. Briefly: Haloperidol-induced catalepsy (bar test). Type of data set: in vivo, Sprague Dawley rats. As to conditions: rats, haloperidol 1 mg/kg sc, Rac-THP 10, 20, 30 mg/kg, R-THP or S-THP 5, 10, 15 mg/kg ip. How it is done:
Animals: Adult male Sprague Dawley rats (230-235 g) from Envigo were used in this study. Upon receipt, rats were group housed in ventilated cages and acclimated for one week prior to testing.
The front paws of a rat were placed then on a horizontal metal bar raised 6″ above a Plexiglas platform. Each rat underwent 3 trials of 60 seconds each. The test ended when the animal's front paws return to the platform or after 60 seconds. Rats were tested at 30 and 60 minutes after treatment.
Data were analyzed by one-way analysis of variance (ANOVA) followed by Tukey's post-hoc comparisons, where appropriate. Data are represented as mean and standard error to the mean (SEM).

Data set [7] concerns the target T1, CYP2B6 (Homo sapiens, UniProt P20813).
T1 sequence (P20813 1-491): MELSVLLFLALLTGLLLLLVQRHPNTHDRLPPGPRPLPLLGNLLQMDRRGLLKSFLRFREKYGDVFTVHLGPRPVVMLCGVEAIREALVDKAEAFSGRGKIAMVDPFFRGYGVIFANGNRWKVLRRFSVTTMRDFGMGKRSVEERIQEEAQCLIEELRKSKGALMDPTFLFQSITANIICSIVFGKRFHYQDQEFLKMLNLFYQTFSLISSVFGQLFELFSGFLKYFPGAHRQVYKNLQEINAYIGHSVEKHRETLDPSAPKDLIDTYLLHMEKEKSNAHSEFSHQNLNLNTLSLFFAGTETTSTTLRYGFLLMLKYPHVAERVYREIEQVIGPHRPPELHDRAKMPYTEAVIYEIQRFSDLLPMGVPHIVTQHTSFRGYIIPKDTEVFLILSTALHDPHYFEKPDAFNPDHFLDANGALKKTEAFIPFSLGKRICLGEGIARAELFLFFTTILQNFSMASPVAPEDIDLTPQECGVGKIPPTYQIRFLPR
Briefly: Incubation with recombinant CYP2B6.

In data set [8] the target is T2, CYP1A2 (Homo sapiens, UniProt P05177).
T2 sequence (P05177 1-516): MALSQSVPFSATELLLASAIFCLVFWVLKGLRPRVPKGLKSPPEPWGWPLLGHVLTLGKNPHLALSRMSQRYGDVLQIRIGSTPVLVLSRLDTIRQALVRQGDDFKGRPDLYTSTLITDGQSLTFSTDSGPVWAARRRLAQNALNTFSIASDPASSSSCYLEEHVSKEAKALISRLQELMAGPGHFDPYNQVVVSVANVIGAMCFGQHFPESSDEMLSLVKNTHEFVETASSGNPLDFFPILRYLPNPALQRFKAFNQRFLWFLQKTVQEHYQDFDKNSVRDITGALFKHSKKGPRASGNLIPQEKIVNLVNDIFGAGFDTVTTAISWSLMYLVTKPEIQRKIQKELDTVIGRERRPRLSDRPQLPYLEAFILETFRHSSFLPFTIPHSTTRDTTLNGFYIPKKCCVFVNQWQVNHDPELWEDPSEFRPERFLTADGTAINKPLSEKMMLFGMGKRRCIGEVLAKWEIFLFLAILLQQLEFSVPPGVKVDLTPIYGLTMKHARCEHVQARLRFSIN
Description: Incubation with recombinant CYP1A2.

Data set [9] addresses CYP2C9 (Homo sapiens, UniProt P11712). Briefly: Incubation with recombinant CYP2C9.
In data set [10] the target is CYP3A4 (Homo sapiens, UniProt P08684). Description: Incubation with recombinant CYP3A4.
CYP3A4, sequence (P08684 whole entry): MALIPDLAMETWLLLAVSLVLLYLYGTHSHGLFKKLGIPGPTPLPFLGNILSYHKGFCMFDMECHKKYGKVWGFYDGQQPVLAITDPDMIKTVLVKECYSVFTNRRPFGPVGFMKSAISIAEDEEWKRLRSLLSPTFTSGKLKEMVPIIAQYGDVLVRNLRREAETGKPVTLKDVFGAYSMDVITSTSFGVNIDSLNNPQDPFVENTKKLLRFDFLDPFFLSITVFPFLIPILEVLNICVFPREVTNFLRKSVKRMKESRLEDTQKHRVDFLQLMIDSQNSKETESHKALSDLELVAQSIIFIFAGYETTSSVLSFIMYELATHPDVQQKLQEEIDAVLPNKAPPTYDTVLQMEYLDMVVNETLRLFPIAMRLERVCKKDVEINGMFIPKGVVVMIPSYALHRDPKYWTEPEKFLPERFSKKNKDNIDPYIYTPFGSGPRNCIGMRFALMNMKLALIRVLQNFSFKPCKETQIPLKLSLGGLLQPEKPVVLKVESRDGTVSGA
Data set [11] has as its target T3, CYP2A6 (Homo sapiens, UniProt P11509).
T3 sequence (P11509 1-494): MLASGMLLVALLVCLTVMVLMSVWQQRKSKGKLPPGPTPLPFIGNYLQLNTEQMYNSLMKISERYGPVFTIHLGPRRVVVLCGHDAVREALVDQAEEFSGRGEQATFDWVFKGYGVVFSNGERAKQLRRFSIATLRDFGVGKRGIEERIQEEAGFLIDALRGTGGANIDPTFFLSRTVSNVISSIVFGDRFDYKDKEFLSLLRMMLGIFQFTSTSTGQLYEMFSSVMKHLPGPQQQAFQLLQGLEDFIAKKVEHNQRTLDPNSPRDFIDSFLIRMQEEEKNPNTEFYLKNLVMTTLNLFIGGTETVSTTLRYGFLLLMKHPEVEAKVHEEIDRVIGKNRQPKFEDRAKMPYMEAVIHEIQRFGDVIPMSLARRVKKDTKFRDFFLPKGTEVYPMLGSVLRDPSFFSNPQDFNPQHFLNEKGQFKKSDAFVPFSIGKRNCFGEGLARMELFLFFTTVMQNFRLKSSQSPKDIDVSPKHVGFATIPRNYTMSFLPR
Description: Incubation with recombinant CYP2A6.

Data set [12] deals with CYP2E1 (Homo sapiens, UniProt P05181). Briefly: Incubation with recombinant CYP2E1.
CYP2E1, sequence (P05181 whole entry): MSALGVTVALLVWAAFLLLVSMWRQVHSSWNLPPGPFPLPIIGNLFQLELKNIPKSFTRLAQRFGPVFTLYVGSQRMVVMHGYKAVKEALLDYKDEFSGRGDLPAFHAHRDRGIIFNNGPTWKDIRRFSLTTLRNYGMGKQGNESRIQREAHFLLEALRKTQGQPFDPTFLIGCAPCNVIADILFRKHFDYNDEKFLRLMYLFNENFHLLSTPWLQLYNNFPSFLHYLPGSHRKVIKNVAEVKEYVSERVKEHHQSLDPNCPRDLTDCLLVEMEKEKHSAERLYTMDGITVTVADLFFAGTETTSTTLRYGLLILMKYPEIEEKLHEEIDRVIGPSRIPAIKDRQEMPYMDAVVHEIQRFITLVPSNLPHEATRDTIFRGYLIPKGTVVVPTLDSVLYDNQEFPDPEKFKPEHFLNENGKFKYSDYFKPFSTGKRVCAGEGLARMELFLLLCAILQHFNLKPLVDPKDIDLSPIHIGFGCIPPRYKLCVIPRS
The procedure of data set [13]:
The resulting metabolites were analyzed by liquid chromatography-mass spectrometry, and metabolite peaks were detected and measured.

Data set [14] deals with CYP2D6 (Homo sapiens, UniProt P10635). Briefly: Incubation with recombinant CYP2D6.
CYP2D6, sequence (P10635 whole entry): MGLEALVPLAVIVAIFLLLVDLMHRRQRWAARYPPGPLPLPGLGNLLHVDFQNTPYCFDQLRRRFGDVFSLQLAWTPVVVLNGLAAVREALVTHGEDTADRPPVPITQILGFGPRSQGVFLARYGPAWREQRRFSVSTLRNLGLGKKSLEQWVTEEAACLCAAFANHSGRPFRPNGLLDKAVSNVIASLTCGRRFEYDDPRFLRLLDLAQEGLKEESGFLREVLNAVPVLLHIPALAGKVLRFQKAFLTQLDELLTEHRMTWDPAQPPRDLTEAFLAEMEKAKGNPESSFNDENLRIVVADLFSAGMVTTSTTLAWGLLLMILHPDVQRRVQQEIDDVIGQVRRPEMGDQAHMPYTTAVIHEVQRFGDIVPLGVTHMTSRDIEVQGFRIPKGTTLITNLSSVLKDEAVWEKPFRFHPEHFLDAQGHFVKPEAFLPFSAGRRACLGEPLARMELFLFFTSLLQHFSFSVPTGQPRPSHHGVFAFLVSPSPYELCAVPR
For data set [15], the target named is CYP3A5 (Homo sapiens, UniProt P20815). Description: Incubation with recombinant CYP3A5.
CYP3A5, sequence (P20815 whole entry): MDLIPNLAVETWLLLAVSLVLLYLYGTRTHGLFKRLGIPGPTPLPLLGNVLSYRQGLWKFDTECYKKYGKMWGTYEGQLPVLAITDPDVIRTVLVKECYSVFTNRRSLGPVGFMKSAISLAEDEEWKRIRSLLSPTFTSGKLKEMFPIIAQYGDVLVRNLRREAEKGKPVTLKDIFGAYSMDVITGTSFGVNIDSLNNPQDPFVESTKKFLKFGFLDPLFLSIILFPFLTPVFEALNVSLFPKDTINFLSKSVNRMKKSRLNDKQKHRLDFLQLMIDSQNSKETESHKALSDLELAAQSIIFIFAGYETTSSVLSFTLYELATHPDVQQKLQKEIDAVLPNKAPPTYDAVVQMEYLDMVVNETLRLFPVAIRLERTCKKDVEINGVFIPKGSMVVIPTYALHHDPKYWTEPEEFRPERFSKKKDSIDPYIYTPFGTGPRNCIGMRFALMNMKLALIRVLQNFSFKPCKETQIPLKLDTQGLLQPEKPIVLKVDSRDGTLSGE
For data set [16], the target named is T4, CYP2C8 (Homo sapiens, UniProt P10632).
T4 sequence (P10632 1-490): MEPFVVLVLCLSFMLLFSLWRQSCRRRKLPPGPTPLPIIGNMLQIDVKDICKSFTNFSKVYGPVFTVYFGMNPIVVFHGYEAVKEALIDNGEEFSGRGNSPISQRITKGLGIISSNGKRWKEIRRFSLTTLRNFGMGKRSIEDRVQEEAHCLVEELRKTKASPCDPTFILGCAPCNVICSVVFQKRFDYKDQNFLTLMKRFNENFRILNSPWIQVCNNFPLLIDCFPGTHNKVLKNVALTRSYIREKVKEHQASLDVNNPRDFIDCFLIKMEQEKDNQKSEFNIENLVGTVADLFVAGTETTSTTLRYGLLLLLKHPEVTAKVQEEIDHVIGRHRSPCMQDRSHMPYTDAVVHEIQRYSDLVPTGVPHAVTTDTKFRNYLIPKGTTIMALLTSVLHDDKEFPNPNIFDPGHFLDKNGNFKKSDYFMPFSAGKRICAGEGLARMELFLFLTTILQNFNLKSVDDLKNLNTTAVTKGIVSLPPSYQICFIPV
Description: Incubation with recombinant CYP2C8.

The nature of data set [17]: Whole blood stability, rat. As to conditions: rat whole blood, 37C. How it is done:
as §1, §2, §3

Setting [18] is: cumulative concentration response curve, no pre-treatment.

CYP2C9, sequence (P11712 whole entry): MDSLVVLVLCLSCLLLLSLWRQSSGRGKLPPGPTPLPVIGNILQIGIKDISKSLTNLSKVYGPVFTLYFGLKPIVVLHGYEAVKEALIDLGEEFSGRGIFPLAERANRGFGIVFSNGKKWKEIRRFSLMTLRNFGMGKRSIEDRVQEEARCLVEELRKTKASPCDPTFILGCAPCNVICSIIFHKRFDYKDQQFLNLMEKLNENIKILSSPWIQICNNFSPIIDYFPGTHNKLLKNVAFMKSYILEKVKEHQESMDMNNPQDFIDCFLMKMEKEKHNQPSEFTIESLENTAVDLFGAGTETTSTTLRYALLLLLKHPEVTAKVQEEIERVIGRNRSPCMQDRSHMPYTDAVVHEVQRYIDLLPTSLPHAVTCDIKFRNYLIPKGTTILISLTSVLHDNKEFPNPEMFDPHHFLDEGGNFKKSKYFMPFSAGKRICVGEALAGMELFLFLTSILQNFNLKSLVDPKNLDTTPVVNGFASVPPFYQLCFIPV

Take `CC(C[N+](C)(C)C)OC(N)=O` (racemic) [BTC, bethanechol]: the change over baseline result in data set [1] (BTC at 30 μM following pre-treatment with Rac-THP at 30 nM) is “up to 50%”. Besides, the “response of EFS-stimulated MPLM strips” value in [1] (setting [18]) was “concentration-dependent contraction”; in [1] (following pre-treatment with Rac-THP at 30 nM) it was “concentration-dependent relaxation of the isolated MPLM strips back to baseline”. The “% Baseline tear production” value in [2] (1 hour post administration) turned out to be 107%; in [2] (4 hours post administration) it was 117%.

With `CC(C)[N+](C)(CCOC(=O)C1c2ccccc2Oc2ccccc21)C(C)C` [Propantheline], in [3] (human whole blood, 37C), the “Remaining Percentages (%) 0 min” value came to 100.00%, the “Remaining Percentages (%) 15 min” value was 71.54%, the “Remaining Percentages (%) 30 min” value worked out at 57.19% and the “Remaining Percentages (%) 60 min” value was 25.74%. Also, in [3] (human whole blood, 37C), the “Remaining Percentages (%) 120 min” value was found to be 6.31%. Moreover, the half-life at 5 μM in [3] (human, whole blood) came to 31 min. In data set [4] (dog whole blood, 37C), the “Remaining Percentages (%) 0 min” value was 100.00%, the “Remaining Percentages (%) 15 min” value worked out at 91.17%, the “Remaining Percentages (%) 30 min” value worked out at 90.30% and the “Remaining Percentages (%) 60 min” value was found to be 85.38%. Besides, in [4] (dog whole blood, 37C), the “Remaining Percentages (%) 120 min” value came out at 62.08%. The compound also returned a half-life at 5 μM in data set [4] (dog, whole blood) of 184 min.

For `OC(CCN1CCCCC1)(c1ccccc1)C1CCCCC1` (racemic) [Rac-THP, racemic trihexyphenidyl], the “Substrates of CYP2C19” value in data set [5] was “Rac, R and S”. Further, the “time spent holding bar, haloperidol-induced catalepsy” value in [6] (30 minutes after injection) and in data set [6] (60 minutes after injection) was “significantly attenuated haloperidol-induced catalepsy” in each case. Besides, the CLint in data set [7], in data set [9], in data set [11], in data set [12] and in data set [16] was 0.00 µL/min/pmol in each case. The t1/2 entry in data set [7] (unit not given), in data set [9] (unit not given), in [11] (unit not given), in [12] (unit not given) and in [16] (unit not given) was “∞” throughout. For the same compound, the “Substrates of CYP1A2” value in data set [8] is “S and Rac”. For the same compound, in [1] (setting [18]), the “response of EFS-stimulated MPLM strips” value is given as “concentration-dependent relaxation response”. Moreover, in data set [10], the “Substrates of CYP3A4” value is “Rac, R and S”. In addition, the metabolites detected result in [13] was “metabolite 18 when incubated with microsomes, but additional metabolites 13, 14, and 16 were also observed”. For the same compound, in data set [14], the “Substrates of CYP2D6” value is “Rac, R and S”. Also, the “Substrates of CYP3A5” value in [15] is “Rac, R and S”.

As to Mevinolin, in data set [17], the “Remaining Percentages (%) 0 min” value is given as 100.00%, the “Remaining Percentages (%) 15 min” value is 9.32%, the “Remaining Percentages (%) 30 min” value was determined as 1.68% and the “Remaining Percentages (%) 60 min” value was 2.21%. Further, in data set [17], the “Remaining Percentages (%) 120 min” value is 2.47% and the t1/2 was determined as 4.38 min.

Take `O=C(CCCN1CCC(O)(c2ccc(Cl)cc2)CC1)c1ccc(F)cc1` [haloperidol, Haloperidol]: the “time spent holding bar, haloperidol-induced catalepsy” value in data set [6] (30 minutes after injection) and in data set [6] (60 minutes after injection) was “significantly increased the time the rats spend holding the bar” throughout.
